Experiment: Phase 1 pharmacokinetic comparison of deutetrabenazine and tetrabenazine
Format: in vivo, healthy volunteer subjects
Conditions: 24-mg dose of deutetrabenazine
Description: The guidance for investigators on conversion of subjects from stable doses of tetrabenazine to deutetrabenazine in the ARC-HD Switch study was designed to minimize the risk that dose conversion would result in either loss of efficacy or increased adverse events. The conversion method applied was based on modeling and simulation of Phase 1 pharmacokinetic data for deutetrabenazine and tetrabenazine. The objective of the pharmacokinetic analysis was to identify an initial dosing regimen of deutetrabenazine predicted to provide exposure at steady state of the active α and β metabolites that was less than or equal to the predicted AUC at steady state of the active alpha and beta metabolites of tetrabenazine, but with a lower Cmax.
In a Phase 1 single-center, open-label, crossover clinical trial, each of 24 healthy volunteer subjects received single doses of 25 mg of tetrabenazine and 15 mg of deutetrabenazine. […]
Subjects in the Switch cohort completed a full screening evaluation. […] The investigator, in consultation with the subject and caregiver, determined when an adequate level of chorea control had been achieved. If a subject experienced a “clinically significant” adverse event attributable to deutetrabenazine, the investigator determined if a dose reduction or suspension was necessary.

With `[2H]C([2H])([2H])Oc1cc2c(cc1OC([2H])([2H])[2H])C1CC(=O)C(CC(C)C)CN1CC2` (stereo not drawn) [deutetrabenazine, (RR, SS)-1,3,4,6,7,11b-hexahydro-9,10-di(methoxy-d3)-3-(2-methylpropyl)-2H-benzo[a]quinolizin-2-one] the “peak concentration (Cmax) vs 50 mg of tetrabenazine” value was “lower peak concentration (Cmax)” and the “systemic exposure (AUC)” value was “comparable systemic exposure (AUC) to 50 mg of tetrabenazine”.

— patent publication US12016858B2, “Methods for the treatment of abnormal involuntary movement disorders” (AUSPEX PHARMACEUTICALS, INC., priority 2015, dated 2024)
